Results from patent US20260374739A1, “SMALL MOLECULAR WEIGHT CHEMICAL COMPOUND TO ANTAGONIZE EPH-EPHRIN TETRAMERIZATION AND INHIBIT BIDIRECTIONAL SIGNALING” (THE BOARD OF REGENTS OF THE UNIVERSITY OF TEXAS SYSTEM, priority 2022, published 2026).
Several values for one entry are separate records, joined by “and”; a condition that tells them apart may be missing. Identical values can stand only once. Like-named read-outs stand apart in the source and are kept apart here.

Molecular target: T1, EphB2-EphrinA5 (Mus musculus, UniProt P54763)
T1 sequence (P54763 19-543 limits assumed): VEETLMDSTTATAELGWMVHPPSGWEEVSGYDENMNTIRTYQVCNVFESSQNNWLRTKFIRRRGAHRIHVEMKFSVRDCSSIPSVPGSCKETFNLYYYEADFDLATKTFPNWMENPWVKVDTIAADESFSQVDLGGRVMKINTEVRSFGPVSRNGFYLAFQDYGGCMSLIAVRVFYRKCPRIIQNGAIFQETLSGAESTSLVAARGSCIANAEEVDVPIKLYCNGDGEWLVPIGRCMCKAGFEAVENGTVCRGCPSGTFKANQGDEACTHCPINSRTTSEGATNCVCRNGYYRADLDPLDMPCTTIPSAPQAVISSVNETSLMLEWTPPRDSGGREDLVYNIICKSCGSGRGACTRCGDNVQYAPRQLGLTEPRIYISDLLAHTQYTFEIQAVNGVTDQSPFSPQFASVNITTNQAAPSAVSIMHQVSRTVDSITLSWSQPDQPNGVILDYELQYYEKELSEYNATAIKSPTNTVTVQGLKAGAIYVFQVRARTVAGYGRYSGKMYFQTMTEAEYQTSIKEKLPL
Assay: Octet, immobilized EphB2 binding to human EphrinA5
Details: for IC50: mEphB2-hEphrinA5, immobilized mouse EphB2, 50 nM soluble human EphrinA5
Protocol: The Octet system was used to probe the interactions of epitope-tagged human A class proteins, focusing on immobilized EphA3 binding to two of its cognate ligands, EphrinA1 and EphrinA5, as well as EphB2 binding to EphrinA5 (FIG. 27). […] Focusing on the dimerization-driven EphA3-EA5 interaction first (green sensorgram trace), which mimics what is disclosed above for EphB4-EB2, the initial binding of soluble EphrinA5 to the immobilized EphA3 is very fast and strong with a long and steep 84° slope of response that then quickly bends around 35 sec into the association step to form a more gradual tetramerization accumulation slope. […] However, again like the EphB4-EB2 interaction, once placed into dissociation, a significant fraction of the bound EA5 protein melts quickly and the off phase continues downward with a slow gradual decline in bound protein. Although the dissociation was for only 500 sec, the continued downward slope of the response indicates most of the bound EA5 protein would eventually melt off of the immobilized EphA3 protein. This is referred to as a classic dimerization-driven interaction, fast and strong initial binding in the association step but with most of the bound protein coming off in the dissociation due to lack of formation of stable tetramers. EphA3 interacts with EphrinA1 with totally different kinetics/dynamics (orange sensorgram trace). Here, the initial high 84° dimerization slope phase is extremely brief (5 sec) with the binding quickly snapping into a linear tetramerization accumulation phase with a 25° slope, and that once placed into dissociation step almost no bound protein melts, just the small amount that would represent dimer interactions falling off in the first few seconds after being placed into dissociation. […] EphB2 interacting with EA5 is similar to the EphA3-EA1 interaction, in that the association step is characterized by a very brief (5 sec) high 84° slope phase that quickly bends into a more gradual tetramer accumulation phase (blue sensorgram trace). […] The strong initial off phase of the EphB2-EA5 complexes in the dissociation represents both the melting of weak dimers and of the relatively weaker affinity tetramers formed by the cross A/B class EphB2-EA5 molecules. […]
The novel compound A20-I is a halogen replacement that changes the 7-bromine in A20 for iodine and had enhanced tetramerization inhibitor activity (FIGS. 38A-38D). This is evident when comparing results of A20-I and A20 salt compounds on the interaction of immobilized mouse EphB2 ectodomain binding to soluble mouse EphrinB2 ectodomain (FIG. 38A and FIG. 38B) or soluble human EphrinA5 (FIG. 38C). […] During these interactions of immobilized EphB ectodomains binding to soluble EphrinB2, the tetramer is much more surmountable by addition of an active compound than for the reverse experiment where EphrinB2 is immobilized and EphB2 is the soluble component in the assay (see FIG. 11, FIG. 17, and FIG. 25A-FIG. 25C). It is believed that the more resistant unsurmountable tetramer formed by immobilized EphrinB2 binding to soluble EphB ectodomains provides for the most rigorous test for determining IC50 values and thus utilizing this EphrinB2-EphB2 assay for analysis of all compounds, provide uniformity in observed results. The results described herein with A20-I and using the human EphrinB2-EphB2 interaction indicates replacements can be made in the 7-bromine in A20 that lead to enhanced tetramerization inhibitor activity.

[1] = association, absolute, read-out: Absolute Association IC50
[2] = association, relative, read-out: Relative Association IC50
[3] = dissociation, absolute, read-out: Absolute Dissociation IC50
[4] = dissociation, relative, read-out: Relative Dissociation IC50

| SMILES | formation of stable tetramers (1 μM) | IC50 [1] | IC50 [2] | IC50 [3] [µM] | IC50 [4] [µM] |
| --- | --- | --- | --- | --- | --- |
| Oc1c(Br)cc(CN2CCOCC2)c2cccnc12 [Compound 5, 7-bromo-5-(morpholinomethyl)quinolin-8-ol] | completely inhibited the formation of stable tetramers |  |  |  |  |
| O=[N+]([O-])c1cc(CN2CCOCC2)c2cccnc2c1O [Compound 10, 4-((8-hydroxy-7-nitroquinolin-1-ium-5-yl)methyl)morpholin-4-ium chloride] |  | 4.24 µM | 2.9 µM | 100 | 100 |
| O=S1(=O)CCN(Cc2ccc(O)c3ncccc23)CC1 [Compound 15, 4-((8-hydroxyquinolin-1-ium-5-yl)methyl)thiomorpholin-4-ium 1,1-dioxide chloride] |  | 7.04 µM | > 1 µM | 8.4 | > 1 |
| Oc1c(I)cc(CN2CCOCC2)c2cccnc12 [Compound 8, 4-((8-hydroxy-7-iodoquinolin-1-ium-5-yl)methyl)morpholin-4-ium chloride] |  | 0.42 µM and 1.59 µM | 0.22 µM and 0.83 µM | 0.09 | 0.08 |
| Oc1c(Br)cc(CN2CCOCC2)c2cccnc12 [Compound 6, 4-((7-bromo-8-hydroxyquinolin-1-ium-5-yl)methyl)morpholin-4-ium chloride] |  | 0.57 µM |  | < 1 |  |
| Oc1ccc(CN2CCN(Cc3ccc(C(F)(F)F)cc3)CC2)c2cccnc12 [Compound 48, 5-((4-(4-(trifluoromethyl)benzyl)piperazin-1-yl)methyl)quinolin-8-ol] |  | 8.24 µM | > 1 µM | 1 | 1 |
| Oc1c(Cl)cc(CN2CCOCC2)c2cccnc12 [Compound 4, 4-((7-chloro-8-hydroxyquinolin-1-ium-5-yl)methyl)morpholin-4-ium chloride] |  | < 1 µM | < 1 µM | < 1 | < 1 |
